Each structure is given as a SMILES string.

This assay concerns the target α-glucosidase. In words: p-nitrophenyl glycoside hydrolysis assay, absorbance at […] nm. It is filed as biochemical.
The compound `C=C[C@]1(C)C=C2[C@@H](O)[C@@]3(O)OC[C@@]4(CCCC(C)(C)[C@@]43O)[C@@]2(O)CC1` [compound 2, 11-deoxydiaporthein A] returned an IC50 of 11.9 ± 0.4 µM. Under `Oc1ccc(/C=C/c2cc(O)cc(O)c2)cc1` [Resveratrol, reference compound] stands 31.2 ± 4.4 µM; under `C=C[C@@]1(C)C[C@@H](O)C2=C(C(=O)[C@@]3(O)OC[C@@]24CCCC(C)(C)[C@@]43O)[C@H]1OC` [compound 1, Isopimarane diterpene (1)], 4.6 ± 0.1 µM.

Source of the values: publication PMC4377976, “Bioactive Isopimarane Diterpenes from the Fungus, Epicoccum sp. HS-1, Associated with Apostichopus japonicus” (Marine Drugs, 2015).
